From ChEMBL document CHEMBL4007403, “Identification of Triazolothiadiazoles as Potent Inhibitors of the dCTP Pyrophosphatase 1” (J Med Chem, 2017)

Assays:
[1] = Stability of the compound in DMSO measured after several months by HPLC-MS analysis; assay type: physicochemical
[2] = Stability of the compound in biochemical assay buffer under mildly acidic mobile phase conditions by HPLC-MS analysis; assay type: physicochemical
dCTP pyrophosphatase 1 = target: T1, dCTP pyrophosphatase 1 (Homo sapiens, UniProt Q9H773); assay: Inhibition of recombinant human N-terminal His-tagged dCTPase 1 expressed in Escherichia coli BL21(DE3)pLysS using dCTP as substrate after 1 hr by malachite green reagent based assay
T1 sequence (Q9H773 whole entry): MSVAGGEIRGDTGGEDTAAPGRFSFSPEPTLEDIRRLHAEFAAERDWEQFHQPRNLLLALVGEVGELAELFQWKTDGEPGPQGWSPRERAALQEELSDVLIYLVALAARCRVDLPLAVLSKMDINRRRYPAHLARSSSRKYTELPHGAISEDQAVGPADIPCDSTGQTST

[3] = Stability of the compound in biochemical assay buffer under basic mobile phase conditions by HPLC-MS analysis; assay type: physicochemical

Compound | Stability [1] | Stability [2] | IC50 (dCTP pyrophosphatase 1) [µM] | Stability [3]
COc1cccc(-c2nnc3sc(-c4ccncc4)nn23)c1 | Stable | Stable | 1.02 | Stable
Clc1cccc(-c2nn3c(-c4ccccn4)nnc3s2)c1 | Stable | Stable | 0.271 | Stable
CCOc1ccc(-c2nn3c(-c4ccccn4)nnc3s2)cc1OCC | Stable | Stable | 1.17 | Stable
c1ccc(CCCCc2nn3c(-c4ccccn4)nnc3s2)cc1 | Stable | Stable | 1.37 | Stable
CCCCc1nnc2sc(-c3cccc(OC)c3)nn12 | Stable | Stable | 2.06 | Stable
Clc1ccc(/C=C/Cc2nn3c(-c4ccccn4)nnc3s2)cc1 | Stable | Stable | 0.22 | Stable
Cc1cc(-c2nn3c(-c4ccccn4)nnc3s2)c2ccccc2n1 | Stable | Stable | 0.314 | Stable
COc1ccc(-c2nn3c(-c4cccnc4)nnc3s2)cc1 | Stable | Stable | 2.61 | Stable
CN(C)c1cccc(-c2nn3c(-c4ccccn4)nnc3s2)c1 | Stable | Stable | 0.277 | Stable
CN(C)c1ccc(-c2nn3c(-c4ccccn4)nnc3s2)cc1 | Stable | Stable | 0.291 | Stable
Clc1ccc(-c2nn3c(-c4ccccn4)nnc3s2)cc1 | Stable | Stable | 0.204 | Stable
Cc1ccc(-c2nn3c(-c4ccccn4)nnc3s2)cc1 | Stable | Stable | 0.469 | Stable
Clc1ccccc1-c1nn2c(-c3ccccn3)nnc2s1 | Stable | Stable | 0.44 | Stable
c1ccc(-c2nnc3sc(-c4cccc5ccccc45)nn23)nc1 | Stable | Stable | 0.204 | Stable
Cc1onc(-c2cccs2)c1-c1nn2c(-c3ccco3)nnc2s1 | Stable | Stable | 1.03 | Stable
C=CCOc1ccc(-c2nn3c(-c4ccccn4)nnc3s2)cc1 | Stable | Stable | 1.21 | Stable
Fc1ccc(-c2nn3c(-c4ccccn4)nnc3s2)cc1 | Stable | Stable | 0.332 | Stable
CCCCc1nnc2sc(-c3cc(C)nc4ccccc34)nn12 | Stable | Stable | 5.61 | Stable
Cc1cccc(-c2nn3c(-c4ccccn4)nnc3s2)c1 | Stable | Stable | 0.449 | Stable
COc1cccc(-c2nn3c(-c4ccccn4)nnc3s2)c1 | Stable | Stable | 1.88 | Stable
Fc1ccccc1-c1nnc2sc(-c3ccccc3)nn12 | Stable | Stable | 0.41 | Stable
CCc1noc(C)c1-c1nn2c(-c3cccs3)nnc2s1 | Stable | Stable | 0.346 | Stable
COc1ccc(-c2nn3c(-c4ccccn4)nnc3s2)cc1 | Stable | Stable | 0.282 to 0.316 | Stable
CCOc1ccc(-c2nn3c(-c4ccccn4)nnc3s2)cc1 | Stable | Stable | 0.449 | Stable
COc1cccc(-c2nn3c(-c4ccncc4)nnc3s2)c1 | Stable | Stable | > 10 | Stable
Fc1cccc(-c2nn3c(-c4ccccn4)nnc3s2)c1 | Stable | Stable | 0.357 | Stable
c1coc(-c2nnc3sc(-c4csc5c4CCCC5)nn23)c1 | Stable | Stable | 0.144 | Stable

The next lines start with the values.

Stability [1] | Stability [2] | IC50 (dCTP pyrophosphatase 1) [µM] | Stability [3] | Compound
Stable | Stable | 0.233 | Stable | c1ccc(-c2nnc3sc(-c4cccnc4)nn23)nc1
Stable | Stable | 7.46 | Stable | CCCc1nnc2sc(-c3cccc(OC)c3)nn12
Stable | Stable | 0.704 | Stable | c1coc(-c2nnc3sc(-c4cccs4)nn23)c1
Stable | Stable | 0.505 | Stable | Ic1ccccc1-c1nn2c(-c3ccccn3)nnc2s1
Stable | Stable | 0.095 | Stable | c1ccc(-c2nnc3sc(-c4ccc5ccccc5c4)nn23)nc1
Stable | Stable | 0.67 | Stable | Fc1ccccc1-c1nn2c(-c3ccccn3)nnc2s1
Stable | Stable | 6.97 | Stable | CCCc1nnc2sc(-c3ccc(OC)cc3)nn12
Stable | Stable | 0.328 | Stable | Brc1ccccc1-c1nn2c(-c3ccccn3)nnc2s1
Stable | Stable | 0.419 | Stable | Clc1ccc(-c2nn3c(-c4ccccn4)nnc3s2)c(Cl)c1
Stable | Stable | 0.164 | Stable | Brc1ccc(-c2nn3c(-c4ccccn4)nnc3s2)cc1
Stable | Stable | 0.208 | Stable | COc1ccc(-c2nn3c(-c4ccccc4F)nnc3s2)cc1
Stable | Stable | > 10 | Stable | CCc1cc(-c2nnc3sc(-c4ccccc4)nn23)n(C)n1
Stable | Stable | 0.558 | Stable | C(=C\c1cccnc1)/Cc1nn2c(-c3ccccc3)nnc2s1
Stable | Stable | 0.227 | Stable | Cc1ccc(-c2nn3c(-c4ccccn4)nnc3s2)cc1C
Stable | Stable | 0.276 | Stable | COc1cc(OC)cc(-c2nn3c(-c4ccccn4)nnc3s2)c1
